The text below walks through data of BindingDB's records for doi:10.7270/Q2QJ7FTF (Burnham Center For Chemical Genomics, 2011).

The test has as its target T1, C-C chemokine receptor type 6 (Homo sapiens, UniProt P51684).
T1 sequence (P51684 whole entry): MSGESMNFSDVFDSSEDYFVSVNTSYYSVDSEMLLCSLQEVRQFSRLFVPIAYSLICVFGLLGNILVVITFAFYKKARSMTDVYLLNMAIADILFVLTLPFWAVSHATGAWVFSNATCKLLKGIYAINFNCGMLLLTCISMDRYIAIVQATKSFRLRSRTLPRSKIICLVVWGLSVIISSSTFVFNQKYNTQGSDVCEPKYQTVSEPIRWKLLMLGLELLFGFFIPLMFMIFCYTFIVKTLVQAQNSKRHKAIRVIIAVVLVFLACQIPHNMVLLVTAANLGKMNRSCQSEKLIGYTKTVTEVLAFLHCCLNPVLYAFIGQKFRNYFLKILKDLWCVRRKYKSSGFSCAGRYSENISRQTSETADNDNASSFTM
In words: CCR6 receptor antagonists, SAR follow-up, cell-based, luminescent beta-arrestin readout (AID 540334).

The compound `OCC12C=CC(O1)c1c2c(O)n(-c2ccccc2-c2ccccc2)c1O` (configuration not stated) [7-(hydroxymethyl)-2-(2-phenylphenyl)-4,7a-dihydro-3aH-octahydro-1H-4,7-epoxyisoindole-1,3-dione] returned an IC50 of over 66.6 µM. The result for `CN1C(=O)C(C2CC(c3ccc(Cl)cc3)N=N2)C(=O)N(C)C1=O` (configuration not stated) [SMR000439471] reads 5.84 µM.
